Laboratory results from patent publication US20100209407A1, “MC-1R, MC-2R, AND/OR MU OPIOID RECEPTORS MODULATION” (BASF BEAUTY CARE SOLUTIONS FRANCE S.A.S., priority 2007, published 2010).

Experiments:
Type in all cases: cell-based, human
[1] = system: MC-1R; experiment: MC-1R mRNA expression by quantitative RT-PCR in melanocytes put in contact with actives; conditions: mRNA relative to actin, multiple of untreated control, 24 hours, same conditions as Example 3
[2] = system: μ opioid R; experiment: μ opioid R mRNA expression by quantitative RT-PCR in melanocytes put in contact with actives; conditions: mRNA relative to actin, multiple of untreated control, 24 hours, same conditions as Example 3
[3] = system: POMC; experiment: POMC mRNA expression by quantitative RT-PCR in melanocytes put in contact with actives; conditions: mRNA relative to actin, multiple of untreated control, 24 hours, same conditions as Example 3
Description: The active components are tested for keratinocytes after dissolution in the culturing environment: usually between 0.1% and 2% (v/v) for plants and biotechnological hydrolysates and in particular from 0.5% to 1% and usually between 0.001% and 0.01% for characterized molecules. The present results are obtained with 1% in the culturing environment for plant extracts and biotechnological hydrolysates, and with 0.01% for characterized molecules.
After the contact time of the actives with the cells, for example 24 hours, the environments are eliminated and the cells conserved, for example by freeze-drying at −80° C. after a rinsing with 7.4 pH phosphate solution. The total RNA is extracted, for example, using a 96-well extraction kit on silica columns and divided onto a 96-well spectrophotometer at 260 nm (purity indicator: dosage of proteins at 280 nm). The RNA is diluted, for example at 5 ng/μl. […]
(§1) The parameters of amplification have usually been the following: The technique of RT-PCR in real time is conducted with the “Quanti Ted SYBR Green RT-PCR” kit (Qiagen, France) on wells containing mRNA, in an OPTICON thermocycler, which carries out cycles of amplification. […] At the end of each cycle, fluorescence, which is proportional to the number of fragments amplified, is read. […]

[4] = system: MC-1R; experiment: MC-1R mRNA expression by quantitative RT-PCR in keratinocytes put in contact with actives; conditions: mRNA relative to actin, multiple of untreated control, 24 hours, 1% plant extracts and biotechnological hydrolysates, 0.01% characterized molecules
Description: (§2) In particular, the extracts are obtained by macerating plants (preferably roots, rhizomes, stems, bark, flowers, fruits, seeds, germs, or leaves) at 1-10% (p/p), usually 1-5% in a solvent or a mixture of solvents, usually a mixture of water and alcohol, glycol, or polyol (such as ethanol, glycerol, butylene glycol and other glycols, xylitol, etc.) 100/0 to 0/100, and preferably in water. The extracts obtained are then filtered or distilled in order to recover the soluble portion, which is then filtered, preferably at 0.45 μm. Biotechnological hydrolysates are obtained via the fermentation of plant extracts in the presence of microorganisms usually from the family of lactic bacteria, in particular bactobacillus plantarum, or paracasei, and bifidobacterium, in particular longum or Saccharomyces. These hydrolysates are then filtered, preferably to 0.45 μm, in order to obtain the active components. […]
as §1

[5] = system: MC-2R; experiment: MC-2R mRNA expression by quantitative RT-PCR in keratinocytes put in contact with actives; conditions: mRNA relative to actin, multiple of untreated control, 24 hours, 1% plant extracts and biotechnological hydrolysates, 0.01% characterized molecules
Description: as §2, §1

[6] = system: μ opioid R; experiment: μ opioid R mRNA expression by quantitative RT-PCR in keratinocytes put in contact with actives; conditions: mRNA relative to actin, multiple of untreated control, 24 hours, 1% plant extracts and biotechnological hydrolysates, 0.01% characterized molecules
Description: as §2, §1

[7] = system: POMC; experiment: POMC mRNA expression by quantitative RT-PCR in keratinocytes put in contact with actives; conditions: mRNA relative to actin, multiple of untreated control, 24 hours, 1% plant extracts and biotechnological hydrolysates, 0.01% characterized molecules
Description: as §2, §1

[8] = system: MC-2R; experiment: Detection of MC-2R protein in keratinocytes after action of active components (electrophoresis, immunodetection, image analysis); conditions: semi-quantification via image analysis, multiple of control
Description: (§3) The cells were cultivated at 37° C. in an atmosphere of 5% CO2 in the K-SFM environment K-SFM (Invitrogen) containing BPF (25 mg), EGF (2.5 μg), and normocin.
(§4) The cells were washed once with PBS solution, and the proteins were extracted at 30 min at 4° C. in lysis solution (Tris 50 mM, NaCl 250 mM, pH 7.5, 1% triton), in the presence of protease inhibitors. The lysates were centrifuged for 15 minutes at 13,000 g. The floaters are diluted with Laemmli solution in the presence of beta mercaptoethanol before electrophoresis.
(§5) For immunodetection, the proteins are separated via electrophoresis in 4-12% SDS-polyacrylamide gel. The proteins were transferred onto a nitrocellulose membrane (Biorad). The membranes are then saturated for one hour at ambient temperature in TBS solution with 3% BSA. The proteins are finally immunodetected after incubation of the primary antibody at 4° C. all night, followed by the secondary antibody coupled with Alexa 488 (invitrogen), 1 hour at ambient temperature.
(§6) The antibodies were used in the following dilution: 5 μg/mL anti-MC-1R, 5 μg/mL anti-MC-2R, and 1/1000 anti-μ opioid R.
(§7) Semi-quantification was carried out via image analysis. The actives are the following and are the subject of table IV.

[9] = system: μ opioid receptor; experiment: Detection of μ opioid receptor protein in keratinocytes after action of active components (electrophoresis, immunodetection, image analysis); conditions: semi-quantification via image analysis, multiple of control
Description: as §3, §4, §5, §6, §7

Row | SMILES | MC-1R Control X: [1] | μ opioid R Control X: [2] | POMC Control X: [3] | MC-1R Control X: [4] | MC-2R Control X: [5] | μ opioid R Control X: [6] | POMC Control X: [7] | MC-2R Control X: [8] | μ opioid R Control X: [9]
1 | Cc1nc(C(=O)O)cc2c1[nH]c1ccccc12 [1 methyl beta carbolin-3-carboxylic acid] | 1.0 Control X | 1.0 Control X | 3.3 Control X | – | – | – | – | – | –
2 | C/C=C(/C)C(=O)OC1CC2(C)CCC(C(C)C)C2(O)CCC1(C)O (stereo not drawn) [(Z)-decahydro-6,8a-dihydroxy-1-isopropyl-3a,6-dimethylazulen-5-yl 2-methylbut-2-enoate] | – | – | – | 1.0 Control X | 18.5 Control X | 1.0 Control X | 1 Control X | 1.99 Control X | 1.37 Control X
3 | CC1=CC(=O)C2=C(C)CC(OC(=O)Cc3ccccc3)C3C(C)C(=O)OC3C12 (stereo not drawn) [Phenyl-acetic acid 3,6,9-trimethyl-2,7-dioxo-2,3,3a,4,5,7,9a,9b-octahydro-azuleno[4,5-b]furan-4-yl] | – | – | – | 20.0 Control X | 20.0 Control X | 1.0 Control X | 1 Control X | 1.96 Control X | 1.66 Control X
